Laboratory results from PubChem BioAssay AID1645861 (Buhrlage Lab, Dana-Farber Cancer Institute and Novartis …, 2021).
The source made the active and inactive calls.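 How the source made its calls: active means compounds whose peak USP7 inhibition across the dose series reached 30% or more; inactive means the rest.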

Target: Ubiquitin carboxyl-terminal hydrolase 7 (Homo sapiens) (UniProt Q93009)
Test: Biochemical concentration-response for ubiquitin-specific peptidase 7 DUB inhibitors, verifying primary hits (AID 1645861)
Details: purified USP7, Ub-rhodamine cleavage fluorescence, 60 min

Sequence of Ubiquitin carboxyl-terminal hydrolase 7 (Homo sapiens) (Q93009 whole entry, looked up): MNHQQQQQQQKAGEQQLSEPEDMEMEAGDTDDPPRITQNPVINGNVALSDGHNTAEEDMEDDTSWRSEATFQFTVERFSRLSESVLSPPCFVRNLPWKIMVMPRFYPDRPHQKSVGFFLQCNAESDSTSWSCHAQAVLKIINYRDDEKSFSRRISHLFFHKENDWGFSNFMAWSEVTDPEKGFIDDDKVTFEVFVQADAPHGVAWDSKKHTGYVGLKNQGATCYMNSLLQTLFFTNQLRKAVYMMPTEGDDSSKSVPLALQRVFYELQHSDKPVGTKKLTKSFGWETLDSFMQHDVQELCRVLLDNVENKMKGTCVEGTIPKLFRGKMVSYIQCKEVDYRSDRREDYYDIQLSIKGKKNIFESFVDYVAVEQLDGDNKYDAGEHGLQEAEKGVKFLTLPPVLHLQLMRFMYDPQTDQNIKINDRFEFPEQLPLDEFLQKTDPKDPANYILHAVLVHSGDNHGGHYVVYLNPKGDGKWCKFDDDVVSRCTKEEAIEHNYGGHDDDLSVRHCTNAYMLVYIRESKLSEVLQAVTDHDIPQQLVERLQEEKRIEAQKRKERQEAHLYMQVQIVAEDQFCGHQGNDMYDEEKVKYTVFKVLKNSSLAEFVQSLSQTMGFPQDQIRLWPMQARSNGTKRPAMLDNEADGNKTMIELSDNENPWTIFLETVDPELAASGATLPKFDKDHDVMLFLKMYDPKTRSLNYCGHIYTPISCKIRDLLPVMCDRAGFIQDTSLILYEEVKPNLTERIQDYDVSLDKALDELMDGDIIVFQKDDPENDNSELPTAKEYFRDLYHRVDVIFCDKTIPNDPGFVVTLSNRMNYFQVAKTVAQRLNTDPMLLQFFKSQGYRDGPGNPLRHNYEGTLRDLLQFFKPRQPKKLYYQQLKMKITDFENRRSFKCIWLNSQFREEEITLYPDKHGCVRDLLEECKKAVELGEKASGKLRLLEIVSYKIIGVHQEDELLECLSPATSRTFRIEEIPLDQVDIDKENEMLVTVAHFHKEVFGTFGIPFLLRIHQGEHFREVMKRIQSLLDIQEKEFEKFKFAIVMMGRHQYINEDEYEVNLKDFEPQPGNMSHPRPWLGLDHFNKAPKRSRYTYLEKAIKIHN

SMILES | IC50
Cc1ccc(Nc2nc(O)c(CC(=O)Nc3cccc(Cl)c3C)s2)cc1C | > 50 µM (inactive)
O=C(COC(=O)c1ccc(NS(=O)(=O)c2ccc(F)c(F)c2)cc1)Nc1ccc(OCc2ccccc2)cc1 | > 50 µM (inactive)
COc1ccc(-c2ccc3cc(C(=O)O)ccc3c2)cc1C12CC3CC(CC(C3)C1)C2 | > 50 µM (inactive)
O=C(NCCc1nc2ccccc2n1CCOc1ccccc1Cl)C1CCCCC1 | > 50 µM (inactive)
Cc1nnc(NC(=O)C2CCN(c3ccc(S(N)(=O)=O)cc3[N+](=O)[O-])CC2)o1 | 49.4 µM
COC(=O)c1ccc(Nc2cc(C)nc3cc(C(F)(F)F)ccc23)cc1 | > 50 µM (inactive)
O=C(Nc1ccccc1C(=O)O)c1ccc(CSCc2ccccc2)cc1 | > 50 µM (inactive)
NS(=O)(=O)c1cccc(NC(=O)/C=C/c2cn(-c3ccccc3)nc2-c2cccc([N+](=O)[O-])c2)c1 | > 50 µM (inactive)
O=C(/C=C/c1c(F)cccc1Cl)N1CCc2ccccc2C1 | > 50 µM (inactive)
Nc1ccc2oc(-c3cccc(-c4nc5cc(N)ccc5o4)n3)nc2c1 | > 50 µM (inactive)
O=C(c1ccccn1)N1CCC2(CC1)CC1(CO2)Nc2ccccc2-n2cccc21 (stereo not drawn) | > 50 µM (inactive)
COc1cc(OC)c(NC(=O)c2cc(-c3ccccn3)n[nH]2)cc1Cl | > 50 µM (inactive)
COc1cc2cc3c(c(O)c2c(O)c1-c1c(OC)cc2cc4c(c(O)c2c1O)C(=O)OC1CC(C)OC41)C(=O)OC1CC(C)OC31 (stereo not drawn) | > 50 µM (inactive)
COc1ccc(Sc2nc3ccccc3n3cnnc23)cc1 | > 50 µM (inactive)
O=c1[nH]c(C2CCN(S(=O)(=O)c3ccc(S(=O)(=O)NC4CCCCC4)cc3)CC2)nc2c1nnn2Cc1ccc(F)cc1 | > 50 µM (inactive)
O=C(Nc1nccs1)C1c2ccccc2C(=O)N(Cc2ccccc2)C12CCCC2 (stereo not drawn) | > 50 µM (inactive)
COc1cc(-c2ccccc2)c(O)c(O)c1-c1ccccc1 | 22.1 µM
Nc1c(C(=O)NCc2ccc3c(c2)OCO3)nnn1Cc1ccc(Br)cc1F | > 50 µM (inactive)
COc1ccc(-c2nc(SCC(=O)Oc3c(C)cccc3C)n3[nH]c(=O)cc3n2)cc1 | > 50 µM (inactive)
O=C(NC(Cc1ccccc1)c1nc2ccccc2[nH]1)C1CC1 (stereo not drawn) | > 50 µM (inactive)
CN(C)[C@H]1C(=O)C(C(N)=O)=C(O)C2(O)C(=O)C3=C(O)c4c(O)cccc4C(C)(O)C3C(O)C12 (stereo partly drawn) | 34.1 µM

SMILES | IC50
COc1cc2c(cc1OC)-c1cc(Nc3ccc(Br)cc3)nc(=O)n1CC2 | > 50 µM (inactive)
COC(=O)c1ccc(N2CCN(C(C)=O)CC2)c(NC(=O)COc2ccc([N+](=O)[O-])cc2)c1 | > 50 µM (inactive)
CC(C)(C)C(=O)[C@@H]1[C@@H](C(=O)c2ccc3c(c2)OCO3)[C@@]2(C(=O)Nc3ccccc32)[C@H]2c3ccccc3C=CN12 | > 50 µM (inactive)
O=C(/C=C/c1ccc(F)cc1)N1CCc2ccccc2C1 | > 50 µM (inactive)
CC(C)CCCCCCCCCCC(=O)N(C)[C@H](CO)C(=O)N[C@H](C)C(=O)NCC(=O)N(C)C1C(=O)N[C@@H](C)C(=O)NC(C(=O)O)Cc2ccc(O)c(c2)-c2cc1ccc2O (stereo partly drawn) | > 50 µM (inactive)
Nc1ccc(C(=O)OCC(=O)NC2CCCc3ccccc32)cc1[N+](=O)[O-] (stereo not drawn) | > 50 µM (inactive)
CCCCCC(=O)C(CCCC)c1oc(=O)c(CCCC)c(O)c1CCCC (stereo not drawn) | > 50 µM (inactive)
O=C(CCc1ccc(S(=O)(=O)N2CCOCC2)cc1)OCC(=O)c1ccc(-c2ccccc2)cc1 | > 50 µM (inactive)
CC1(C)Cc2c(c(-c3ccco3)nc3sc4c(SCCCc5ccccc5)ncnc4c23)CO1 | > 50 µM (inactive)
Cn1c(=O)c2nc(-c3ccc(Cl)cc3)nnc2n(C)c1=O | > 50 µM (inactive)
O=C(CSc1oc(-c2ccc(F)cc2)nc1S(=O)(=O)c1ccc(F)cc1)Nc1ccc(F)cc1 | > 50 µM (inactive)
Cc1cc(NC(=O)c2cc(-c3cccnc3)n[nH]2)ccc1Br | 48.6 µM
O=C(Nc1cccc(F)c1)Nc1cccc(-c2nnc(-c3ccccc3)o2)c1 | > 50 µM (inactive)
CCCCCCCCCCCC1=C(O)C(=O)C=C(O)C1=O | 14.7 µM
Cc1ccc(Nc2nc(NCC(=O)Nc3cc(C)ccc3C)nc(Nc3ccc(C)cc3)n2)cc1 | > 50 µM (inactive)
Cc1nn(-c2ccc(F)cc2)c(C)c1S(=O)(=O)N1CCN(c2ccccn2)CC1 | > 50 µM (inactive)
COc1ccc(S(=O)(=O)N2CCc3ccccc32)cc1C(=O)Nc1ccc2[nH]c(=O)[nH]c2c1 | > 50 µM (inactive)
Cc1ccc(NC(=O)CSc2nnc(-c3n[nH]c4c3CCC4)n2N)cc1C | > 50 µM (inactive)
O=C(CSc1nc2cc(C(F)(F)F)ccc2s1)NCC(=O)c1ccccc1 | 35.8 µM
Cc1cccc2nc(CSc3nc4ccc([N+](=O)[O-])cc4[nH]3)cn12 | > 50 µM (inactive)

Other lines, results leading:

IC50 | SMILES
> 50 µM (inactive) | O=C(NCc1ccco1)c1ccc(Cn2c(=O)c3sccc3n(Cc3cc(=O)n4ccccc4n3)c2=O)cc1
> 50 µM (inactive) | O=C(Cn1c(=O)n(Cc2ccc3c(c2)OCO3)c(=O)c2ccccc21)NCc1ccco1
> 50 µM (inactive) | COc1cc2c(=O)n(Cc3ccccc3)c(=O)n(CC(=O)N3CCCc4ccccc43)c2cc1OC
40.6 µM | Cc1ccc(C)c(NC(=O)Cn2cc(C(=O)C3CC3)c3ccccc32)c1
> 50 µM (inactive) | COc1ccc(Cl)cc1NC(=O)COC(=O)c1cc2ccccc2oc1=O
> 50 µM (inactive) | O=C(CCn1c(=O)c2ccccc2n(CC(=O)OCc2ccccc2)c1=O)NCc1ccc2c(c1)OCO2
> 50 µM (inactive) | COc1ccc(NC(=O)Cn2c(=O)n(CCCC(=O)NC3CCCC3)c(=O)c3cc(Cl)ccc32)c(OC)c1
> 50 µM (inactive) | Cn1cc(NC(=O)Nc2cccc(C(F)(F)F)c2)c2ccccc2c1=O
13.4 µM | O=C(NCCc1ccccc1)c1ccc2c(=O)n(Cc3ccco3)c(=O)n(Cc3cccc([N+](=O)[O-])c3)c2c1
> 50 µM (inactive) | COc1ccc(NC(=O)Cn2c(=O)n(-c3ccc(CC(=O)NCc4ccco4)cc3)c(=O)c3ccccc32)cc1Cl
> 50 µM (inactive) | N#Cc1ccccc1NC(=O)c1cc2c(s1)-c1ccccc1S(=O)(=O)C2
> 50 µM (inactive) | Cc1ccc(NC(=O)Cn2cc(C(=O)c3ccccc3)c(=O)c3cc(C)ccc32)cc1
> 50 µM (inactive) | Cc1ccc(Cl)cc1NC(=O)Cn1c(=O)n(CCC(=O)NCc2ccco2)c(=O)c2ccccc21
> 50 µM (inactive) | COc1cccc(CNC(=O)c2nnn(CC(=O)Nc3cc(C)ccc3C)c2N)c1
> 50 µM (inactive) | Cc1ccccc1NC(=O)c1nc(-c2cn(Cc3ccc(F)cc3)nn2)no1
> 50 µM (inactive) | CC(NC(=O)c1ccccc1)c1nc2ccccc2n1CC(=O)Nc1ccc(C#N)cc1 (stereo not drawn)
> 50 µM (inactive) | O=C(Cn1c(=O)n(Cc2ccc(C(=O)NCc3ccco3)cc2)c(=O)c2ccccc21)Nc1ccc2c(c1)OCCO2
> 50 µM (inactive) | CCOc1ccc(NC(=O)Cn2c(=O)n(CCCCCC(=O)NCc3ccc(F)cc3)c(=O)c3sccc32)cc1
> 50 µM (inactive) | O=C(CCCCCn1c(=O)c2sccc2n(CC(=O)c2ccc(Cl)c(Cl)c2)c1=O)NCc1ccc2c(c1)OCO2
> 50 µM (inactive) | CCOc1ccc(NC(=O)Cn2c(=O)n(CCC(=O)NCc3ccco3)c(=O)c3ccccc32)cc1
> 50 µM (inactive) | N#Cc1cccc(NC(=O)Nc2cccn(Cc3ccccc3F)c2=O)c1
> 50 µM (inactive) | CCc1nc(SCC(=O)Nc2ccc(C)cc2C)c2oc3ccccc3c2n1
